Laboratory results: patent publication US11534457B2, “Use of dextran sulfate” (priority 2017, dated 2022)

Assays:
[1] = test system: mouse cortical neurons; experiment: PI staining (DNA content, cell cycle, cell numbers, apoptotic fraction), Acumen cytometry; type: cell-based; details: 0.01 and 0.1 mg/ml
Procedure: The study aims were to evaluate the effect of LMW-DS on cell survival and expression of differentiation proteins in three cell types, cerebral cortical neurons, motor neurons and Schwann cells, using two concentrations 0.01 and 0.1 mg/ml of LMW-DS.
Neurons were cultured as 40,000 cells per well and Schwann cells 3,000 cells per. Cells were treated after 24 hours. The number of cells per well depended on the growth phenotype, proliferative capacity, etc.
PNGM was prepared by adding PNGM Singlequots (Lonza) to PNBM medium and pre-warmed to 37° C. Cells were thawed in a 37° C. water bath for no longer than 2 min and gently transferred into a 15 ml tube. 5 ml of medium was gently added drop-wise. Cell suspension was mixed by inverting the tube carefully twice. Cells were counted with a Cellometer AUTO T4 (Nexcelom Bioscience). 40,000 cells per well were seeded in previously coated 96-well plates. Cells were incubated at 37° C. with 5% CO2. After at 2-hour incubation 80 μl of medium was removed and replaced with 80 μl of fresh medium and cells were allowed to settle for 24 hours before drug treatment.
LMW-DS was prepared in the culture media of choice for each cell line and added to the respective wells in the doses 0.01 and 0.1 mg/ml. For cell survival assays cells were analyzed after 24 and 48 hours in eight identical wells/dose/time point. Differentiation and protein expression assay was analyzed after 48 hours, also in octuplicates.
Cells were fixated in the wells. Propidium iodine was used for viability assay. For immunohistochemical analysis, neurons were stained with βIII-tubulin, which is a tubulin specific for neurons. Schwann cells were stained for Myelin Basic Protein (MBP). For the negative controls PBST (0.1% Triton-X-100 in PBS) was applied instead of primary antibodies.
The Acumen cytometer allows the direct cytometric analysis of attached cells without prior detachment. […] The protein content of the cells can also be directly measured and expressed as either ‘total protein content’ or ‘mean protein content’.

[2] = test system: MyoF system [differentiated lung myofibroblasts+(TNFα and TGFβ)]; experiment: BioMAP MyoF system; type: cell-based, Human
Text: (§1) In this study LMW-DS was characterized by profiling in the BioMAP® Diversity PLUS panel. The BioMAP® panel consists of human primary cell-based systems designed to model different aspects of the human body in an in vitro format. The 12 systems in the BioMAP® Diversity PLUS panel (Table 32) allow test agent characterization in an unbiased way across a broad set of systems modeling various human disease states. The BioMA®P systems are constructed with one or more primary cell types from healthy human donors, with stimuli, such as cytokines or growth factors, added to capture relevant signaling networks that naturally occur in human tissue or pathological conditions. […]
(§2) Systems are derived from either single cell types or co-culture systems. […] Test agents prepared in either DMSO (small molecules; final concentration 0.1%) or PBS (biologics) are added at the indicated concentrations 1-hr before stimulation, and remain in culture for 24-hrs or as otherwise indicated (48-hrs, MyoF system; 72-hrs, BT system (soluble readouts); 168-hrs, BT system (secreted IgG)). […] Soluble factors from supernatants are quantified using either HTRF® detection, bead-based multiplex immunoassay or capture ELISA. Overt adverse effects of test agents on cell proliferation and viability (cytotoxicity) are detected by sulforhodamine B (SRB) staining, for adherent cells, and alamarBlue® reduction for cells in suspension. […]

[3] = test system: BF4T system [bronchial epithelial cells and HDFn+(TNFα and IL-4)]; experiment: BioMAP BF4T system; type: cell-based, Human
Text: as §1, §2

low molecular weight dextran sulfate [LMW-DS]
cell numbers [1]: significantly reduced
fraction of apoptotic cells [1]: increased slightly
number of cells in the G2/M phase (PI content) ([1]; 24 and 48 h): appeared to increase the number of cells in the G2/M phase
biomarker activities modulated [2]: merely IL-8
Increased biomarker activity ([2]; MyoF system): IL-8
Increased biomarker activity ([3]; BF4T system): Eot3
Eotaxin-3 ([3]; lower concentrations only): Modestly increased
